Test results: publication PMC10146491, “Meroterpenoids from Gongolaria abies-marina against Kinetoplastids: In Vitro Activity and Programmed Cell Death Study” (Pharmaceuticals, 2023)

Key:
[1] = test system: epimastigotes of Trypanosoma cruzi; experiment: Trypanocidal activity assay (Alamar Blue), epimastigotes; type: cell-based; conditions: for Selectivity index (CC50/IC50), T. cruzi: CC50 in murine macrophages; for IC50: Trypanosoma cruzi, 72 h, Alamar Blue, read-out: Antikinetoplastid activity IC50, T. cruzi
Method: (§1) To carry out the experiments, promastigotes of Leishmania amazonensis (MHOM/BR/77/LTB0016) and L. donovani (MHOM/IN/90/GE1F8R) and epimastigotes of Trypanosoma cruzi (Y strain) were employed. Leishmania species were cultured in Schneider’s medium (Sigma-Aldrich, Madrid, Spain), supplemented with 10% fetal bovine serum (VWR, Biowest, Nuaillé, France) and incubated at 26 °C. RPMI 1640 medium (Gibco, Thermo Fisher, Madrid, Spain) with or without phenol red was also used to culture the parasites at the same temperature. Epimastigotes of T. cruzi were cultured in liver infusion tryptose (LIT) medium supplemented with 10% fetal bovine serum at 26 °C. A cytotoxicity assay was performed using a murine macrophage cell line J774A.1 (ATCC TIB-67), which was maintained in Dulbecco’s modified Eagle’s medium (Gibco, Thermo Fisher, Madrid, Spain) supplemented with 10% of fetal bovine serum at 37 °C in a 5% CO2 atmosphere.
(§2) With the objective of determining the antiparasitic activity of the compounds isolated from G. abies-marina, leishmanicidal activity assays were performed against promastigote stages of L. amazonensis and L. donovani, as well as a trypanocidal activity assay performed against epimastigote stages of T. cruzi. In both parasites, a colorimetric assay was used based on the Alamar Blue reagent (Life Technologies, Madrid, Spain) as previously described by Bethencourt-Estrella et al. (2021).
(§3) In a sterile 96 well-plate, serial dilutions of the extracts, fractions or compounds isolated from G. abies-marina were performed in RPMI 1640 medium without phenol red (in the case of Leishmania spp.) or in LIT (in the case of T. cruzi) with a final volume of 100 µL. Parasites were added to wells to reach a concentration of 5 × 10^5 (Leishmania spp.) or 2.5 × 10^5 (T. cruzi) until a final volume of 200 µL/well. Next, 10% of Alamar Blue® was placed into each well and the plate was incubated for 72 h at 26 °C. Finally, the fluorescence of each well was measured using an EnSpire® Multimode Plate Reader (Perkin Elmer, Madrid, Spain) (544 nm excitation, 590 nm emission) and the concentration that inhibits 50% of the parasite population (IC50) was calculated using a non-linear regression analysis with 95% confidence limits. Miltefosine and benznidazol were used as reference drugs. To analyze the data and calculate the IC50, SigmaPlot 12.0 statistical analysis software (Systat Software Inc, Palo Alto, CA, USA) was used.
(§4) The 50% inhibitory concentration (IC50) and 50% cytotoxic concentration (CC50) values were obtained using Sigma Plot 12.0 statistical analysis software (Systat Software) and calculated using a non-linear regression analysis with 95% confidence limits. Leishmanicidal and trypanocidal activity assays, as well as cytotoxicity assays, were performed three times on different days, and the results were expressed as means ± standard deviations. The analysis of variance was determined using a one-way ANOVA using the GraphPad.PRISM® 9.0 software program (GraphPad Software, San Diego, CA, USA). Differences at p < 0.05 were considered statistically significant.

[2] = test system: intracellular form of L. infantum; parameters: method as in PMID 28126391; conditions: read-out: IC50 against the intracellular form of L. infantum; cited from earlier work
[3] = test system: promastigotes of Leishmania infantum; parameters: method as in PMID 28126391; conditions: read-out: IC50 against promastigotes of Leishmania infantum; cited from earlier work
[4] = test system: L. amazonensis promastigotes; experiment: Transmission electron microscopy, ultrastructural effects; type: cell-based, Leishmania amazonensis; conditions: IC90, 24 h
Method: (§5) The analysis of the ultrastructural and morphological damage caused by the compounds in the parasites was performed in collaboration with the Facultad de Estudios Superiores Iztacala (FESI), Medicina, UNAM (Mexico). These assays were performed after incubation of the promastigotes of L. amazonensis and epimastigotes of T. cruzi at the IC90 levels of the pure compounds over 24 h. TEM images were obtained using the conventional microscopy technique as previously described by Castelan-Ramirez et al. in a JEOL JEM-1011 transmission electron microscope (JEOL Ltd., Tokyo, Japan).

T. cruzi epimastigotes [5] = experiment: as above; type: cell-based, Trypanosoma cruzi; conditions: IC90, 24 h
Method: as §5

T. cruzi epimastigotes [6] = experiment: Mitochondrial membrane potential (JC-1 assay); type: cell-based, Trypanosoma cruzi; conditions: IC90, 24 h
Method: To study the mechanism of cell death induced in parasites by compounds isolated from Gongolaria abies-marina, a common step was carried out to perform the following five experiments. The promastigotes of Leishmania spp. and epimastigotes of T. cruzi were incubated at the IC90 levels of the compounds (previously calculated) for 24 h at 26 °C. After incubation, the parasites were centrifuged at 3000 rpm for 10 min at 4 °C. The pellets were resuspended following the manufacturer’s instructions for each kit. A JC-1 Mitochondrial Membrane Potential Assay Kit® (Cayman Chemical, Ann Arbor, MI, USA) was used to analyze variations in the mitochondrial membrane potential of the parasites after incubation at the IC90 levels of the compounds. After centrifugation, the parasites were resuspended in the same buffer and transferred to a black 96-well plate. JC-1 was added following the manufacturer’s instructions as also described by López-Arencibia et al. (2020). Green and red fluorescence was measured using an EnSpire® Multimode Plate Reader (PerkinElmer, Madrid, Spain).

[7] = Cytotoxicity assay (Alamar Blue); type: cell-based; conditions: mouse, J774A.1 murine macrophage cell line, J774A.1, 24 h, read-out: Cytotoxicity CC50, murine macrophages
Method: as §1
In a sterile 96-well plate, murine macrophages of the cell line J774A.1 were placed to reach an amount of 10^5 cells per well using RPMI 1640 medium without phenol red. After murine macrophage attachment, 50 µL serial dilutions of the isolated compounds were added in each well until reaching a final volume of 100 µL. Next, 10% of Alamar Blue® was placed into each well and the plate was incubated for 24 h at 37 °C with a 5% CO2 atmosphere. Finally, the plates were analyzed using an EnSpire® Multimode Plate Reader (PerkinElmer, Madrid, Spain), as described in the previous section, and the 50% cytotoxic concentration (CC50) values were calculated.
as §4

[8] = test system: promastigotes of L. amazonensis; experiment: Leishmanicidal activity assay (Alamar Blue), promastigotes; type: cell-based, Leishmania amazonensis; conditions: for Selectivity index (CC50/IC50), L. amazonensis: CC50 in murine macrophages; for IC50: Leishmania amazonensis, 72 h, Alamar Blue, read-out: Antikinetoplastid activity IC50, L. amazonensis
Method: as §1, §2, §3, §4

[9] = test system: promastigotes of L. donovani; experiment: as above; type: cell-based, Leishmania donovani; conditions: for Selectivity index (CC50/IC50), L. donovani: CC50 in murine macrophages; for IC50: Leishmania donovani, 72 h, Alamar Blue, read-out: Antikinetoplastid activity IC50, L. donovani
Method: as §1, §2, §3, §4

[10] = test system: intracellular amastigotes of L. amazonensis; experiment: In vitro effect against amastigote stage in infected macrophages; type: cell-based, Leishmania amazonensis; conditions: for Selectivity index (CC50/IC50), amastigotes of L. amazonensis: CC50 in murine macrophages; for IC50: Leishmania amazonensis, J774.A1, intracellular amastigotes in J774A.1 macrophages, 24 h treatment
Method: To determine the in vitro effect against the amastigote stage of L. amazonensis, murine macrophages were infected. In a sterile 96 well-plate, macrophages of the J774A.1 cell line were placed in RPMI 1640 to reach 10^5 macrophages per well. This plate was incubated at 37 °C in a 5% CO2 atmosphere. After one hour of incubation, 100 µL of stationary-phase promastigotes of 7-day-old culture was added in a 10:1 ratio (10^6 parasites per well) and the plates were re-incubated at 37 °C for 24 h to achieve maximum infection. Then, the wells were washed with fresh medium to remove non-phagocytosed promastigotes. The infected macrophages were treated with the compounds isolated for 24 h. Then, the medium was removed carefully to be replaced by 30 μL of 0.05% SDS and the plate was shaken for 30 s. After broke macrophages, 170 μL of Schneider’s medium was added to each well to give a final volume of 200 μL and 20 μL of Alamar Blue® was added to the plate being incubated at 26 °C for 72 h, as described by López-Arencibia et al. (2017). After 72 h of incubation, the plates were analyzed using the same protocol for the promastigote test.

[11] = test system: L. amazonensis promastigotes; experiment: ATP level analysis (Cell Titer-Glo); type: cell-based, Leishmania amazonensis; conditions: IC90 of compound, 24 h
Method: To study the mechanism of cell death induced in parasites by compounds isolated from Gongolaria abies-marina, a common step was carried out to perform the following five experiments. The promastigotes of Leishmania spp. and epimastigotes of T. cruzi were incubated at the IC90 levels of the compounds (previously calculated) for 24 h at 26 °C. After incubation, the parasites were centrifuged at 3000 rpm for 10 min at 4 °C. The pellets were resuspended following the manufacturer’s instructions for each kit. After the incubation of promastigotes and epimastigotes of the parasites with the IC90 of the compounds, the changes in ATP levels were measured using a Cell Titer-Glo® Luminescent Cell Viability Assay (Promega, WI, USA). The assay was carried out in a white 96-well plate following the manufacturer’s instructions, as previously described by Cartuche et al. (2020). The luminescence was measured using an EnSpire® Multimode Plate Reader (PerkinElmer, Madrid, Spain).

[12] = listed as 6Z-1′-methoxyamentadione
[13] = listed as 6Z-1′-methoxyamentadione (3)

| Compound | Selectivity index (CC50/IC50), T. cruzi [1] | IC50 [1] [µM] | CC50 at 24 h [7] [µM] | Selectivity index (CC50/IC50), L. amazonensis [8] | IC50 [8] [µM] | Selectivity index (CC50/IC50), amastigotes of L. amazonensis [10] | IC50 [10] [µM] | Selectivity index (CC50/IC50), L. donovani [9] | IC50 [9] [µM] | also measured |
| --- | --- | --- | --- | --- | --- | --- | --- | --- | --- | --- |
| O=C(Cn1ccnc1[N+](=O)[O-])NCc1ccccc1 [Benznidazole, benznidazole, reference compound] | 57.51 | 6.95 ± 0.5 | – | – | – | – | – | – | – | – |
| 3R-tetraprenyltoluquinone | – | – | – | – | – | – | – | – | – | IC50 [2]: 25 µM; IC50 [3]: 44.9 µM |
| COc1c(C)cc(O)cc1C/C=C(\C)CC(=O)C/C(C)=C/CC[C@@H](C)C(=O)/C=C/C(C)(C)O [Gongolarone B (2), gongolarone B] | 8.36 | 2.92 ± 0.25 | 24.4 ± 3.98 | 3.79 | 6.45 ± 0.44 | 1.50 | 16.2 ± 1.9 | – | – | Ultrastructural and morphological alterations (TEM) [4]: mitochondrial expansion (M), chromatin condensation in the nucleus (*), intense vacuolization (V), the formation of some autophagy vacuoles; Ultrastructural and morphological alterations (TEM) (T. cruzi epimastigotes [5]; listed as gongolarone B): morphological mitochondrial (M) and kinetoplast (K) alterations, chromatin condensation in the nucleus (*), intense vacuolization (V) and the formation of some autophagy vacuoles; Ultrastructural and morphological alterations (TEM) (T. cruzi epimastigotes [5]; listed as gongolarone B (2)): Morphological alterations of the mitochondria and kinetoplast; Mitochondrial membrane potential changes (JC-1) (T. cruzi epimastigotes [6]): greatest decrease; Activity against L. donovani (in words) [9]: lost its activity; ATP levels relative to negative control [11]: decreased |
| COc1c(C)cc(O)cc1C/C=C(\C)CC(=O)/C=C(/C)CCC[C@@H](C)C(=O)/C=C/C(C)(C)O [6Z-1′-Methoxyamentadione (3), 6Z-1′-methoxyamentadione] | 8.19 | 3.26 ± 0.11 | 26.8 ± 4.06 | 5.49 | ~4.88 | 1.66 | 16.2 ± 2.61 | 0.27 | 97.9 ± 5.32 | Ultrastructural and morphological alterations (TEM) [4, 12]: mitochondrial expansion (M), chromatin condensation in the nucleus (*), intense vacuolization (V), the formation of some autophagy vacuoles; Ultrastructural and morphological alterations (TEM) [4, 13]: alteration of the flagellar pocket; Ultrastructural and morphological alterations (TEM) (T. cruzi epimastigotes [5]; [12]): morphological mitochondrial (M) and kinetoplast (K) alterations, chromatin condensation in the nucleus (*), intense vacuolization (V) and the formation of some autophagy vacuoles; Ultrastructural and morphological alterations (TEM) (T. cruzi epimastigotes [5]; [13]): Morphological alterations of the mitochondria and kinetoplast; ATP levels relative to negative control [11]: greatest effect |
| 3S-tetraprenyltoluquinone | – | – | – | – | – | – | – | – | – | IC50 [2]: 88 µM; IC50 [3]: 94.4 µM |
| CCCCCCCCCCCCCCCCOP(=O)([O-])OCC[N+](C)(C)C [Miltefosine, miltefosine, reference compound] | – | – | 72.2 ± 1.25 | 11.10 | 6.48 ± 0.1 | 23.16 | 3.12 ± 0.12 | 21.80 | 3.31 ± 0.11 | – |
| COc1c(C)cc(O)cc1C/C=C(\C)CC(=O)/C=C(\C)CCC[C@@H](C)C(=O)/C=C/C(C)(C)O [1′-Methoxyamentadione (4), 1′-methoxyamentadione] | 5.36 | 4.93 ± 0.55 | 26.4 ± 2.27 | 5.41 | ~4.88 | 0.96 | 27.6 ± 1.68 | 0.21 | 126.5 ± 1.15 | Ultrastructural and morphological alterations (TEM) ([4]; listed as 1′-methoxyamentadione): mitochondrial expansion (M), chromatin condensation in the nucleus (*), intense vacuolization (V), the formation of some autophagy vacuoles; Ultrastructural and morphological alterations (TEM) ([4]; listed as 1′-methoxyamentadione (4)): alteration of the flagellar pocket; Ultrastructural and morphological alterations (TEM) ([4]; listed as 4): showed two nuclei; Ultrastructural and morphological alterations (TEM) (T. cruzi epimastigotes [5]): morphological mitochondrial (M) and kinetoplast (K) alterations, chromatin condensation in the nucleus (*), intense vacuolization (V) and the formation of some autophagy vacuoles |
